Measured values reported in patent US11084800B2 (Achillion Pharmaceuticals, Inc., priority 2017, dated 2021).
pIC50: −log10 of the molar value.

Each molecule was assayed against Human Factor D (Homo sapiens (Human), UniProt P00746) (assay: Human Factor D Assay). Conditions: Factor D inhibition, assay of Example 10; read-out: IC5 (Stars).
Human Factor D, sequence (P00746 26-253): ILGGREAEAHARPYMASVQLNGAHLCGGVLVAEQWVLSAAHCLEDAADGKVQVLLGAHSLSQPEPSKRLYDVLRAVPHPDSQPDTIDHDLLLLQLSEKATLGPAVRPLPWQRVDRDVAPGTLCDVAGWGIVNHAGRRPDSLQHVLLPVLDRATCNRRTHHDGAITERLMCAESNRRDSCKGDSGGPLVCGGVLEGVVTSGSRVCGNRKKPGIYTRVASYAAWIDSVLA
Assay type: biochemical
How it was run: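 Thioester substrate Z-L-Lys-SBz (100 μM) with Ellman's reagent DTNB (100 μM) reports activity of 80 nM human serum-derived enzyme, kinetically at 405 nm over 30 min. Compound preincubated 5 min, room temperature, pH 7.5 Tris/1 M NaCl; IC50 by nonlinear fit of rates.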
In the case of CC(=O)c1nn(CC(=O)N2[C@H](C(=O)Nc3nc(Br)ccc3C)C[C@@]3(Cn4cccn4)C[C@@H]23)c2ccc(-c3cnc(C)nc3)cc12 [Compound 310, (1R,3S,5R)-5-((1H-Pyrazol-1-yl)methyl)-2-(2-(3-acetyl-5-(2-methylpyrimidin-5-yl)-1H-indazol-1-yl)acetyl)-N-(6-bromo-3-methylpyridin-2-yl)-2-azabicyclo[3.1.0]hexane-3-carboxamide], the pIC50 was greater than 6.00.
With CC(=O)c1nn(CC(=O)N2[C@H](C(=O)Nc3nc(Br)ccc3C)C[C@@]3(Cn4ccc(C(C)(C)C)n4)C[C@@H]23)c2ccc(-c3cnc(C)nc3)cc12 [Compound 311, (1R,3S,5R)-2-(2-(3-acetyl-5-(2-methylpyrimidin-5-yl)-1H-indazol-1-yl)acetyl)-N-(6-bromo-3-methylpyridin-2-yl)-5-((3-(tert-butyl)-1H-pyrazol-1-yl)methyl)-2-azabicyclo[3.1.0]hexane-3-carboxamide] the pIC50 was greater than 6.00.
In the case of CC(=O)c1nn(CC(=O)N2[C@H](C(=O)Nc3nc(Br)ccc3C)C[C@@]3(Cn4cncn4)C[C@@H]23)c2ccc(-c3cnc(C)nc3)cc12 [Compound 312, (1R,3S,5R)-5-((1H-1,2,4-triazol-1-yl)methyl)-2-(2-(3-acetyl-5-(2-methylpyrimidin-5-yl)-1H-indazol-1-yl)acetyl)-N-(6-bromo-3-methylpyridin-2-yl)-2-azabicyclo[3.1.0]hexane-3-carboxamide], the pIC50 was greater than 6.00.
With CC(=O)c1nn(CC(=O)N2[C@H](C(=O)Nc3nc(Br)ccc3C)C[C@@]3(Cn4cncn4)C[C@@H]23)c2cnc(-c3cnc(C)nc3)cc12 [Compound 313, (1R,3S,5R)-5-((1H-1,2,4-triazol-1-yl)methyl)-2-(2-(3-acetyl-5-(2-methylpyrimidin-5-yl)-1H-pyrazolo[3,4-c]pyridin-1-yl)acetyl)-N-(6-bromo-3-methylpyridin-2-yl)-2-azabicyclo[3.1.0]hexane-3-carboxamide] the pIC50 was greater than 6.00.
CC(=O)c1nn(CC(=O)N2[C@H](C(=O)Nc3nc(Br)ccc3C)C[C@@]3(Cn4cnc(C)c4)C[C@@H]23)c2ccc(-c3cnc(C)nc3)cc12 [Compound 314, (1R,3S,5R)-2-(2-(3-Acetyl-5-(2-methylpyrimidin-5-yl)-1H-indazol-1-yl)acetyl)-N-(6-bromo-3-methylpyridin-2-yl)-5-((4-methyl-1H-imidazol-1-yl)methyl)-2-azabicyclo[3.1.0]hexane-3-carboxamide] was tested, and the pIC50 was greater than 6.00.
For CC(=O)c1nn(CC(=O)N2[C@@H](C(=O)Nc3nc(Br)ccc3C)C[C@@]3(Cn4cnc(C)c4)C[C@@H]23)c2ccc(-c3cnc(C)nc3)cc12 [Compound 315, (1R,3R,5R)-2-(2-(3-Acetyl-5-(2-methylpyrimidin-5-yl)-1H-indazol-1-yl)acetyl)-N-(6-bromo-3-methylpyridin-2-yl)-5-((4-methyl-1H-imidazol-1-yl)methyl)-2-azabicyclo[3.1.0]hexane-3-carboxamide], the pIC50 was 5.00 to 6.00.
With CCc1cc(-c2cnc(C)nc2)cc2c(C(C)=O)nn(CC(=O)N3[C@H](C(=O)Nc4nc(Br)ccc4C)C[C@@]4(CN(C)C)C[C@@H]34)c12 [Compound 316, (1R,3S,5R)-2-(2-(3-acetyl-7-ethyl-5-(2-methylpyrimidin-5-yl)-1H-indazol-1-yl)acetyl)-N-(6-bromo-3-methylpyridin-2-yl)-5-((dimethylamino)methyl)-2-azabicyclo[3.1.0]hexane-3-carboxamide] the pIC50 was greater than 6.00.
For CC(=O)c1nn(CC(=O)N2[C@H](C(=O)Nc3nc(Br)ccc3CN3CCC(C)(F)CC3)C[C@@]3(C)C[C@@H]23)c2ccc(-c3cnc(C)nc3)cc12 [Compound 322, (1R,3S,5R)-2-(2-(3-acetyl-5-(2-methylpyrimidin-5-yl)-1H-indazol-1-yl)acetyl)-N-(6-bromo-3-((4-fluoro-4-methylpiperidin-1-yl)methyl)pyridin-2-yl)-5-methyl-2-azabicyclo[3.1.0]hexane-3-carboxamide], the pIC50 was greater than 6.00.
CC(=O)c1nn(CC(=O)N2[C@H](C(=O)Nc3nc(Br)ccc3C)C[C@@]3(CN(C)C)C[C@@H]23)c2c(C(F)CF)cc(-c3cnc(C)nc3)cc12 (stereo partly drawn) [Compound 325, (1R,3S,5R)-2-(2-(3-acetyl-7-(1,2-difluoroethyl)-5-(2-methylpyrimidin-5-yl)-1H-indazol-1-yl)acetyl)-N-(6-bromo-3-methylpyridin-2-yl)-5-((dimethylamino)methyl)-2-azabicyclo[3.1.0]hexane-3-carboxamide] showed a pIC50 greater than 6.00.
With CC(=O)c1nn(CC(=O)N2[C@H](C(=O)Nc3nc(Br)ccc3C)C[C@@]3(CCC(F)F)C[C@@H]23)c2cnc(-c3cnc(C)nc3)cc12 [Compound 327] the pIC50 was greater than 6.00.
CC(=O)c1nn(CC(=O)N2[C@H](C(=O)Nc3nc(Br)ccc3C)C[C@@]3(C)C[C@@H]23)c2ccc(-c3cnc(C)nc3C)cc12 [Compound 331, (1R,3S,5R)-2-(2-(3-acetyl-5-(2,4-dimethylpyrimidin-5-yl)-1H-indazol-1-yl)acetyl)-N-(6-bromo-3-methylpyridin-2-yl)-5-methyl-2-azabicyclo[3.1.0]hexane-3-carboxamide] showed a pIC50 greater than 6.00.
CC(=O)c1nn(CC(=O)N2[C@H](C(=O)Nc3nc(Br)ccc3C)C[C@@]3(c4cc(C(C)C)no4)C[C@@H]23)c2ccc(-c3cnc(C)nc3)cc12 [Compound 333, (1R,3S,5S)-2-(2-(3-acetyl-5-(2-methylpyrimidin-5-yl)-1H-indazol-1-yl)acetyl)-N-(6-bromo-3-methylpyridin-2-yl)-5-(3-isopropylisoxazol-5-yl)-2-azabicyclo[3.1.0]hexane-3-carboxamide] gave a pIC50 greater than 6.00.
Molecule CC(=O)c1nn(CC(=O)N2[C@H](C(=O)Nc3nc(Br)ccc3C)C[C@@]3(Cc4nc(C(C)(C)C)cs4)C[C@@H]23)c2ccc(-c3cnc(C)nc3)cc12 [Compound 338, (1R,3S,5R)-2-{2-[3-Acetyl-5-(2-methylpyrimidin-5-yl)indazol-1-yl]acetyl}-N-(6-bromo-3-methylpyridin-2-yl)-5-[(4-tert-butyl-1,3-thiazol-2-yl)methyl]-2-azabicyclo[3.1.0]hexane-3-carboxamide] has a pIC50 greater than 6.00.
CCc1csc(C[C@@]23C[C@@H](C(=O)Nc4nc(Br)ccc4C)N(C(=O)Cn4nc(C(C)=O)c5cc(-c6cnc(C)nc6)ccc54)[C@@H]2C3)n1 [Compound 339, (1R,3S,5R)-2-(2-(3-acetyl-5-(2-methylpyrimidin-5-yl)-1H-indazol-1-yl)acetyl)-N-(6-bromo-3-methylpyridin-2-yl)-5-((4-ethylthiazol-2-yl)methyl)-2-azabicyclo[3.1.0]hexane-3-carboxamide] showed a pIC50 greater than 6.00.
CC(=O)c1nn(CC(=O)N2[C@H](C(=O)Nc3nc(Br)ccc3C)C[C@@]3(CNCCCF)C[C@@H]23)c2c(C)cc(-c3cnc(C)nc3)cc12 [Compound 342, (1R,3S,5R)-2-(2-(3-acetyl-7-methyl-5-(2-methylpyrimidin-5-yl)-1H-indazol-1-yl)acetyl)-N-(6-bromo-3-methylpyridin-2-yl)-5-(((3-fluoropropyl)amino)methyl)-2-azabicyclo[3.1.0]hexane-3-carboxamide] showed a pIC50 greater than 6.00.
For CC(=O)c1nn(CC(=O)N2[C@H](C(=O)Nc3nc(Br)ccc3C)C[C@@]3(CN4CC5(CCC5)C4)C[C@@H]23)c2c(C)nc(-c3cnc(C)nc3)cc12 [Compound 344, (1R,3S,5R)-5-(2-azaspiro[3.3]heptan-2-ylmethyl)-2-(2-(3-acetyl-7-methyl-5-(2-methylpyrimidin-5-yl)-1H-pyrazolo[3,4-c]pyridin-1-yl)acetyl)-N-(6-bromo-3-methylpyridin-2-yl)-2-azabicyclo[3.1.0]hexane-3-carboxamide], the pIC50 was greater than 6.00.
With CC(=O)c1nn(CC(=O)N2[C@H](C(=O)Nc3nc(Br)ccc3C)C[C@@]3(CCCN(C)C)C[C@@H]23)c2c(CF)cc(-c3cnc(C)nc3)cc12 [Compound 345, (1R,3S,5R)-2-(2-(3-acetyl-7-(fluoromethyl)-5-(2-methylpyrimidin-5-yl)-1H-indazol-1-yl)acetyl)-N-(6-bromo-3-methylpyridin-2-yl)-5-(3-(dimethylamino)propyl)-2-azabicyclo[3.1.0]hexane-3-carboxamide] the pIC50 was greater than 6.00.

Same assay, conditions: Table 8; Factor D 80 nM, substrate Z-L-Lys-SBz; read-out: IC50
With CC(=O)c1nn(CC(=O)N2[C@H](C(=O)Nc3nc(Br)ccc3C)C[C@@]3(CN(C)C)C[C@@H]23)c2c(C3CC3)cc(-c3cnc(C)nc3)cc12 [Compound 317, (1R,3S,5R)-2-(2-(3-acetyl-7-cyclopropyl-5-(2-methylpyrimidin-5-yl)-1H-indazol-1-yl)acetyl)-N-(6-bromo-3-methylpyridin-2-yl)-5-((dimethylamino)methyl)-2-azabicyclo[3.1.0]hexane-3-carboxamide] the pIC50 was greater than 6.00.
With CC(=O)c1nn(CC(=O)N2[C@H](C(=O)Nc3nc(Br)ccc3C)C[C@@]3(CN(C)C)C[C@@H]23)c2c(C(F)(F)F)cc(-c3cnc(C)nc3)cc12 [Compound 318, (1R,3S,5R)-2-(2-(3-acetyl-5-(2-methylpyrimidin-5-yl)-7-(trifluoromethyl)-1H-indazol-1-yl)acetyl)-N-(6-bromo-3-methylpyridin-2-yl)-5-((dimethylamino)methyl)-2-azabicyclo[3.1.0]hexane-3-carboxamide] the pIC50 was greater than 6.00.
COC(=O)CCCCCCCCCCCCCCCCC(=O)N[C@@H](CCC(=O)NCCOCCOCC(=O)NCCOCCOCC(=O)NCc1ncc(-c2ccc3c(c2)c(C(C)=O)nn3CC(=O)N2[C@H](C(=O)Nc3nc(Br)ccc3C)C[C@@]3(C)C[C@@H]23)cn1)C(=O)OC [Compound 329] gave a pIC50 greater than 6.00.
Work on C=CCCCCCCc1cc(-c2cnc(C)nc2)cc2c(C(C)=O)nn(CC(=O)N3[C@H](C(=O)Nc4nc(Br)ccc4CC=C)C[C@@]4(C)C[C@@H]34)c12 [Compound 343, (1R,3S,5R)-2-(2-(3-acetyl-5-(2-methylpyrimidin-5-yl)-7-(oct-7-en-l-yl)-1H-indazol-1-yl)acetyl)-N-(3-allyl-6-bromopyridin-2-yl)-5-methyl-2-azabicyclo[3.1.0]hexane-3-carboxamide] yielded a pIC50 greater than 6.00.
